According to article PMC9414910, “Optimized ^68Ga-Labeled Urea-Based PSMA-Targeted PET Tracers for Prostate Cancer” (Pharmaceuticals, 2022):

Key:
[1] = Partition coefficient, octanol–water system; type: physicochemical; conditions: octanol–water (v/v = 1:1), n = 3
Method: The partition coefficient of each novel radiotracer was determined using an octanol–water system (v/v = 1:1). The in vitro stability was determined using two systems (PBS and 5% BSA). The Ki value was measured by the NAALADase assay. The 22Rv1 and PC-3 cell lines were used for the cell-binding study and establishment of the tumor-bearing model (detailed information is shown in the Supplementary Materials).
PBS) and reported as log p ± SD. […]

[2] = test system: 22Rv1 cells (mild PSMA+); assay: Cell uptake / binding in 22Rv1 cells; type: cell-based, human; conditions: 60 min incubation, 37 °C
Text: Cell lines were kindly provided by the stem cell bank of the Chinese Academy of Sciences. The human prostate cancer epithelial cell lines 22Rv1 (mild PSMA+) and PC-3 (with no PSMA receptor) were used to evaluate the specific cell-binding affinity of the radiotracers, and the results were expressed as percentages of injected activity, IA%/10^6.
Cell Lines and Culture Condition
Cell lines were kindly provided by the stem cell bank, the Chinese Academy of Sciences. The human prostate cancer cell lines 22Rv1 ( mild PSMA positive) and PC3 (PSMA negative) were cultured in RPMI 1640 medium or F12K medium (CORNING, America), supplemented with 10% Fetal Bovine Serum
(GIBCO, The Netherlands) and 1% penicillin-streptomycin (CORNING, America) in a humidified incubator at 37 °C under 5% CO2. Each cell line was passaged when it was at around 80-90% confluence, and harvested using trypsin-ethylenediaminetetraacetic acid (trypsin-EDTA; 0.25% trypsin, 0.02% EDTA, all from KeyGEN BioTECH).
Cells were seeded separately in 24 well plates (1 x 10^5 cells in 1 mL medium/well) and incubated overnight, the medium was changed 2 h before the experiment. For the binding experiments, cells were incubated with novel […]
min, 30 min and 60 min (6 wells/time point). After incubation, the medium was removed and the cells were washed twice with ice-cold phosphate-buffered saline (0.5 mL). Finally, the cells were lysed by NaOH (0.5 M, 0.5 mL). Coincubation of 2-(phosphonomethyl) pentane-1,5-dioic acid […]
(2-PMPA) solution (2 μg/well) and each radiotracer for 60 min was conducted as the blocking experiment. The radioactivity of cells was measured by a γ-counter. The studies were performed in triplicate and the results were reported as the percentage injected activity (IA%/10^6 cells). […]

[3] = Blood pharmacokinetics in male ICR mice; type: in vivo; conditions: 7.4 MBq i.v., two-compartment model
Method: Injection of novel radiotracers or [68Ga]Ga-PSMA-617 or [68Ga]Ga-PSMA-11 […]
mice (5 mice/group), and the blood sample (5 μL) of each mouse was collected by cutting down the tail end at different time points post injection. The radioactivity of blood samples were measured by a γ-counter and the pharmacokinetics data was calculated using the WinNonlin software.
Figure S3. Time-activity curves of the blood samplesafter injection of 7.4 MBq of [68Ga]Ga-PSMA-4PY (A), [68Ga]Ga-PSMA-Q (B),[68Ga]Ga-PSMA-P (C), [68Ga]Ga-PSMA-617 (D), [68Ga]Ga-PSMA-11 (E), [68Ga]Ga-PSMA-Q-1 (F), [68Ga]Ga-PSMA-Q-2 (G) and [68Ga]Ga-PSMA-Q-3 (H).
(1 picture or pasted object on this page, not shown here)

[4] = test system: 22Rv1 tumor-bearing mice; assay: Biodistribution in 22Rv1 tumor-bearing mice; conditions: for Uptake Blood, Mean / Uptake Bone, Mean / Uptake Heart, Mean / Uptake Kidney, Mean / Uptake Liver, Mean / Uptake Lung, Mean / Uptake Muscle, Mean / Uptake Spleen, Mean / Uptake Tumor (22Rv1), Mean: 0.74 MBq, n = 3; for Clearance profile in the kidneys: within 60 min p.i.
Method: (§1) The animal studies were approved by the institutional animal care and use committee of the Chinese PLA General Hospital. Healthy male ICR mice were injected with either a novel radiotracer (37 MBq in 150 μL) or saline (150 μL) for the radiotoxicity evaluation. […] Biodistribution and micro-PET studies were performed on 22Rv1 and PC-3 xenograft models, and 2-PMPA was used as the PSMA blocker (all details are shown in the Supplementary Materials).
BALB/c nude mice (male, 4-6 weeks) were inoculated subcutaneously with […]
100 mm3, the mice underwent biodistribution study and Micro-PET imaging.
The 22Rv1 tumor-bearing mice were injected with each novel radiotracer or […]
[…] Mice were sacrificed at different time points p.i. (10 min, 30 min, 60 min), tumors and interested organs were harvested, weighed and measured by a γ-counter, the results were expressed as the percentage of injected dose per gram (ID%/g).
Table S1. Uptake values for ex vivo tissues of [ 68Ga]Ga-PSMA-Q (0.74 MBq/mice) in 22Rv1 tumor-bearing mice (10, 30 and 60 min p.i., n = 3/time point).

[5] = test system: 22Rv1 tumors; assay: Micro-PET imaging in 22Rv1 tumor-bearing mice; type: in vivo; conditions: 22Rv1 tumor, 60 min p.i., 7.4 MBq
Method: as §1
Table S9. Tumor-to-mu scle (T/M) ratio and tumor- to-kidney (T/K) rati o of radiotracers at 60 min p.i.
The Mice bearing 22Rv1 and PC-3 (n = 3/group) xenograft tumors were […]
Co-injection with 2-PMPA (50 μ g) and each novel tracer (7.4 MBq in 150 μL) was used for blocking. Then the mice were anesthetized with 3% (v/v) isoflurane and underwent Micro-PET scans with continuous 1% (v/v) isoflurane. The images were acquired at 60 min p.i.. In comparison, […]
into another group of mice (n = 3), and Micro-PET schedule was performed as […]
Imaging was performed on a Super Nova PET/CT scanner using a 100-mm-transaxial field of view for PET and 110-mm for CT.
Three-dimensional ordered-subsets expectation maximization reconstruction

[6] = biodistribution, 22Rv1 tumor-bearing mice, 60 min p.i.

| SMILES | Uptake in 22Rv1 cells [2] [IA%/10^6] | Elimination half-life [3] [min] | Uptake Blood, Mean ([4]; 10 min p.i.) [ID%/g] | Uptake Bone, Mean ([4]; 10 min p.i.) [ID%/g] | Uptake Heart, Mean ([4]; 10 min p.i.) [ID%/g] | Uptake Kidney, Mean ([4]; 10 min p.i.) [ID%/g] | Uptake Liver, Mean ([4]; 10 min p.i.) [ID%/g] | Uptake Lung, Mean ([4]; 10 min p.i.) [ID%/g] | Uptake Muscle, Mean ([4]; 10 min p.i.) [ID%/g] | Uptake Spleen, Mean ([4]; 10 min p.i.) [ID%/g] | Uptake Tumor (22Rv1), Mean ([4]; 10 min p.i.) [ID%/g] | Uptake Blood, Mean ([4]; 30 min p.i.) [ID%/g] | Uptake Bone, Mean ([4]; 30 min p.i.) [ID%/g] | Uptake Kidney, Mean ([4]; 30 min p.i.) [ID%/g] | Uptake Liver, Mean ([4]; 30 min p.i.) [ID%/g] | Uptake Lung, Mean ([4]; 30 min p.i.) [ID%/g] | Uptake Muscle, Mean ([4]; 30 min p.i.) [ID%/g] | Uptake Spleen, Mean ([4]; 30 min p.i.) [ID%/g] | Uptake Tumor (22Rv1), Mean ([4]; 30 min p.i.) [ID%/g] | Uptake Blood, Mean ([4]; 60 min p.i.) [ID%/g] | also measured |
| --- | --- | --- | --- | --- | --- | --- | --- | --- | --- | --- | --- | --- | --- | --- | --- | --- | --- | --- | --- | --- | --- |
| O=C([O-])CN1CCN(CC(=O)[O-])CCN(CC(=O)NCC2CCC(C(=O)NC(Cc3ccncc3)C(=O)NCCCCC(NC(=O)NC(CCC(=O)O)C(=O)O)C(=O)O)CC2)CCN(CC(=O)O)CC1.[68Ga+3] (centres unmarked) [[^68Ga]Ga-PSMA-4PY] | 3.01 ± 0.47 | 15.15 ± 0.32 | 1.68 | 0.56 | 1.87 | 2.15 | 1.53 | 0.83 | 0.67 | 0.59 | 1.56 | 0.68 | 0.28 | 2.08 | 0.78 | 0.50 | 0.31 | 0.47 | 1.83 | 0.21 | Log p pH = 7.4 [1]: −3.49 ± 0.01; Uptake Heart, Mean ([4]; 30 min p.i.): 0.86 ID%/g; Uptake Bone, Mean ([4]; 60 min p.i.): 0.21 ID%/g; Uptake Heart, Mean ([4]; 60 min p.i.): 0.58 ID%/g; Uptake Liver, Mean ([4]; 60 min p.i.): 0.47 ID%/g; Uptake Lung, Mean ([4]; 60 min p.i.): 0.25 ID%/g; Uptake Muscle, Mean ([4]; 60 min p.i.): 0.14 ID%/g; Uptake Spleen, Mean ([4]; 60 min p.i.): 0.33 ID%/g; Uptake Tumor (22Rv1), Mean ([4]; 60 min p.i.): 2.15 ID%/g; Uptake Tumor (22Rv1), Mean ([4]; 60 min p.i., listed as [^68Ga]Ga-PSMA-Q-4PY): 2.15 ± 0.46 ID%/g; Clearance profile in the kidneys [4]: remained relatively stable; SUVmax of tumor [5]: 0.69 ± 0.26 |
| O=C([O-])CN(CCN(CC(=O)[O-])Cc1cc(CCC(=O)NCCCCCC(=O)NCCCC[C@H](NC(=O)N[C@@H](CCC(=O)O)C(=O)O)C(=O)O)ccc1[O-])Cc1cc(CCC(=O)O)ccc1[O-].[68Ga+3].[OH3+] [[^68Ga]Ga-PSMA-11, reference compound] | 3.19 ± 0.27 | 16.69 ± 1.77 | 2.28 | 0.72 | 2.54 | 10.20 | 1.53 | 0.77 | 0.81 | 0.99 | 1.61 | 0.91 | 0.30 | 2.76 | 0.78 | 0.53 | 0.30 | 0.53 | 1.90 | 0.22 | Uptake Bone, Mean ([4]; 60 min p.i.): 0.17 ID%/g; Uptake Heart, Mean ([4]; 60 min p.i.): 0.53 ID%/g; Uptake Kidney, Mean ([4]; 60 min p.i.): 1.61 ID%/g; Uptake Liver, Mean ([4]; 60 min p.i.): 0.47 ID%/g; Uptake Lung, Mean ([4]; 60 min p.i.): 0.21 ID%/g; Uptake Muscle, Mean ([4]; 60 min p.i.): 0.14 ID%/g; Uptake Spleen, Mean ([4]; 60 min p.i.): 0.40 ID%/g; Uptake Tumor (22Rv1), Mean ([4]; 60 min p.i.): 2.38 ID%/g; SUVmax of tumor [5]: 0.76 ± 0.18 |
| O=C([O-])CN1CCN(CC(=O)[O-])CCN(CC(=O)NCCCCCC(=O)NC(Cc2cnc3ccccc3c2)C(=O)NCCCCC(NC(=O)NC(CCC(=O)O)C(=O)O)C(=O)O)CCN(CC(=O)O)CC1.[68Ga+3] (centres unmarked) [[^68Ga]Ga-PSMA-Q-2] | 2.99 ± 0.15 | 20.22 ± 0.97 | 1.87 | 1.12 | 1.76 | 13.88 | 1.62 | 0.83 | 0.65 | 2.34 | 1.34 | 0.69 | 0.71 | 20.74 | 1.21 | 0.61 | 0.37 | 1.41 | 1.87 | 0.47 | Uptake Heart, Mean ([4]; 30 min p.i.): 1.08 ID%/g; Uptake Bone, Mean ([4]; 60 min p.i.): 0.53 ID%/g; Uptake Heart, Mean ([4]; 60 min p.i.): 0.50 ID%/g; Uptake Kidney, Mean ([4]; 60 min p.i.): 26.62 ID%/g; Uptake Liver, Mean ([4]; 60 min p.i.): 0.52 ID%/g; Uptake Lung, Mean ([4]; 60 min p.i.): 0.55 ID%/g; Uptake Muscle, Mean ([4]; 60 min p.i.): 0.16 ID%/g; Uptake Spleen, Mean ([4]; 60 min p.i.): 1.05 ID%/g; Uptake Tumor (22Rv1), Mean ([4]; 60 min p.i.): 2.15 ± 0.33 ID%/g; Uptake Tumor (22Rv1), Mean ([4]; 60 min p.i., listed as [68Ga]Ga-PSMA-Q-2): 2.15 ID%/g; Tumor-to-kidney (T/K) ratio [4, 6]: 0.08 ± 0.02; Tumor-to-muscle (T/M) ratio [4, 6]: 13.41 ± 0.39; Clearance profile in the kidneys [4]: continuously accumulated in the kidneys; SUVmax of tumor [5]: 0.47 ± 0.11 |
